Assay results published in EP0765662A1, “HIV GROWTH INHIBITORY COMPOSITION” (Kochi, Mutsuyuki, priority 1994, dated 1995).
Counter-ions that a name gives are not always drawn.

Tests used:
[1] = system: HIVBRU; assay: Formation of giant cells from HIV-infected Molt-4 cells (mixed cultivation, microscopic observation); type: cell-based; conditions: mixed cultivation of HIV-infected and HIV-non-infected Molt-4 cells; 20 hours of the cultivation; read-out: concentration of SBA that can inhibit the formation of the giant cells
Method: In the tests above, the replication of the viral particles of HIV was examined in terms of the amount of the p24 antigen protein produced and appearing in the culture supernatant from the cultivated cells. Thus, the amount of the p24 antigen produced was measured periodically over 6 days after the A3.01 cells were infested with HIV. It was then observed that in the absence of SBA, the replication of the viral particles of HIV was induced in the A3.01 cells by stimulation with 10 units/ml of TNF-α added. […] Thus, the effective amount of SBA has the activity to inhibit the replication of the viral particles of HIV within the cells to an extent as same as AZT, and from this it is expected that SBA is useful similarly to AZT for the therapeutic treatments of AIDS. (d) Tests for evaluating an inhibitory activity of SBA to the formation of giant cells from HIV-infected Molt-4 cells In a similar manner to that in the above Test (c), Molt-4 cells (a CD4-positive human T-cell strain) were infected with AIDS virus, HIVBRU. Thereafter, The HIV-infected Molt-4 cells were mixed with such Molt-4 cells which had no HIV-infection. And the mixture of these cells were cultivated at a high density of the mixed cells in the above-mentioned improved RPM1-1640 medium containing SBA at its different concentrations. […]

[2] = system: HIV-1 (HTLV-IIIB strain); assay: Occurrence of HIV-1 positive cells in U1 cells with or without TPA stimulation (indirect fluorescent antibody technique); type: cell-based; conditions: for Rate (%) of occurrence of HIV-1 positive cells: U1 cells
Method: As the cell to be tested here for estimation of the occurrence of HIV in this Example, there were used such U1 cells which had been prepared by introducing 2 copies of the gene DNA of HIV-1 (HTLV-IIIB strain) into U937 cells (human monocytic blast-like cells, namely one sort of human T-cells). The U1 cell is an HIV potentially-infected T-cell wherein the HIV-1 gene is present merely as provirus.
The above-mentioned U1 cells were seeded and incubated in Costar 48-well-plates under such different conditions as indicated below. Thus, the U1 cells were seeded in a culture medium and were incubated in the presence of 5,6-O-benzylidene-L-ascorbic acid mono-sodium salt (hereinafter abbreviated as SBA) as incorporated at different concentrations by addition of SBA to the culture medium, or the U1 cells were incubated in the absence of SBA. The incubation of these U1 cells was further effected with such both two types of those U1 cells, namely with such one type of U1 cells which had been stimulated further by addition of TPA at various concentrations thereto, and with such another type of U1 cells which had not been stimulated by TPA.
When the U1 cells as stimulated by the addition of TPA were incubated, replication of the viral particles of HIV took place in considerable numbers of the U1 cells, resulting in the production of the HIV antigen within the cells, so that said cells thus became such HIV-positive cells which could sprout and release the viral particles of HIV therefrom. This replication of the viral particles of HIV can be detected by an indirect fluorescent antibody technique as illustrated below.
The U1 cells were thus incubated under the different conditions as explained in the above, including such a case where both SBA and TPA were not added; such a case where SBA was added, but TPA was not added; such a case where SBA was not added, but TPA was added; and such as case where both SBA and TPA were added, respectively. Then, the replication of the viral particles of HIV within the U1 cells, and the release of the viral particles of HIV from the U1 cells so incubated under the different conditions as above mentioned were detected by means of the indirect fluorescence technique in which there were employed a mouse monoclonal antibody having an anti-HIV-1 activity as a primary antibody and also employed an FITC-rabbit-originated […] as a secondary antibody. The number of the U1 cells which could be detected as the HIV-positive cells was calculated in term of percentage (%) on the basis of the total numbers of the U1 cells as subjected to the test, and it was expressed as the rate (%) of occurrence or appearance of the HIV-1 positive cells.

SMILES: O=C1O[C@H]([C@@H]2COC(c3ccccc3)O2)C(O)=C1O (stereo partly drawn) [SBA, 5,6-O-benzylidene-L-ascorbic acid mono-sodium salt]
- minimal effective concentration [1]: ≥ 10 µg/mL
- IC50 ([2]; Human immunodeficiency virus 1, IIIB, U1 cells incubated in the presence of TPA, read-out: concentration of SBA required to achieve 50% inhibition of the replication of the HIV viral particles): ~400 µg/mL
- Rate (%) of occurrence of HIV-1 positive cells ([2]; SBA 25 µg/ml, TPA (1 ng/ml) was added): 26%
- Rate (%) of occurrence of HIV-1 positive cells ([2]; SBA 25 µg/ml, TPA was not added): 3%
- Rate (%) of occurrence of HIV-1 positive cells ([2]; SBA 50 µg/ml, TPA (1 ng/ml) was added): 21%
- Rate (%) of occurrence of HIV-1 positive cells ([2]; SBA 50 µg/ml, TPA was not added): 2%
- Rate (%) of occurrence of HIV-1 positive cells ([2]; SBA 100 µg/ml, TPA (1 ng/ml) was added): 16%
- Rate (%) of occurrence of HIV-1 positive cells ([2]; SBA 100 µg/ml, TPA was not added): 2%
- Rate (%) of occurrence of HIV-1 positive cells ([2]; SBA 200 µg/ml, TPA (1 ng/ml) was added): 14%
- Rate (%) of occurrence of HIV-1 positive cells ([2]; SBA 200 µg/ml, TPA was not added): 3%
- Rate (%) of occurrence of HIV-1 positive cells ([2]; SBA 400 µg/ml, TPA (1 ng/ml) was added): 12%
- Rate (%) of occurrence of HIV-1 positive cells ([2]; SBA 400 µg/ml, TPA was not added): 3%
- Rate (%) of occurrence of HIV-1 positive cells ([2]; SBA 800 µg/ml, TPA (1 ng/ml) was added): 8%
- Rate (%) of occurrence of HIV-1 positive cells ([2]; SBA 800 µg/ml, TPA was not added): 4%
